Data from patent publication US8846929B2, “Substituted-quinoxaline-type piperidine compounds and the uses thereof” (priority 2007, dated 2014).

These compounds were tested against human opioid receptor-like (ORL-1) (Homo sapiens (Human), UniProt P41146) (assay: In vitro ORL-1 receptor [35S]GTPγS functional assay).
Chain of human opioid receptor-like (ORL-1) (P41146 whole entry): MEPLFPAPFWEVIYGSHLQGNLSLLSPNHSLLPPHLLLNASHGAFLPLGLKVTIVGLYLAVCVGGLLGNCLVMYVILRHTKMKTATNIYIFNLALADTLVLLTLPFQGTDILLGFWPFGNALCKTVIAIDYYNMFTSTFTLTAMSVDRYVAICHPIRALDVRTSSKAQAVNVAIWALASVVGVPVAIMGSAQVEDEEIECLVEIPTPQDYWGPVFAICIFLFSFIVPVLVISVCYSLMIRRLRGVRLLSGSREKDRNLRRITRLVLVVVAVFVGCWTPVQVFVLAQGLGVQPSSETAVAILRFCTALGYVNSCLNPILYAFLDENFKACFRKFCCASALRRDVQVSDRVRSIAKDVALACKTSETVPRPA
Assay type: biochemical
In the case of `NC(=O)CNc1nc2ccccc2n(C2CCN(C3CCCCCCC3)CC2)c1=O` [compound 32], the EC50 is reported as 406 ± 42 nM.
With `CC(C)CC(C)N1[C@@H]2CCC[C@H]1C[C@@H](n1c(=O)c(C(=O)O)nc3ccccc31)C2` (stereo partly drawn) [compound 304] the EC50 was 150 ± 6 nM.
Compound `O=C1CN(c2nc3ccccc3n(C3CCN(C4CCCCCCC4)CC3)c2=O)CCN1` [compound 18, 1-(1-cyclooctylpiperidin-4-yl)-3-(3-oxopiperazin-1-yl)quinoxalin-2(1H)-one] has an EC50 of 1280 ± 84 nM.
For `O=c1c(NC[C@@H](O)CO)nc2ccccc2n1C1CCN(C23CC4CC(CC(C4)C2)C3)CC1` [compound 89], the EC50 was 806 ± 85 nM.
For `O=C(Nc1ccc(=O)[nH]c1)c1nc2ccccc2n(C2CCN(C3CCCCCCC3)CC2)c1=O` [compound 82], the EC50 was 181 ± 9.8 nM.
Compound `O=C(O)c1ccc(CNC(=O)c2nc3ccccc3n([C@H]3C[C@H]4CC[C@@H](C3)N4C3CCCCCCC3)c2=O)cc1` [compound 314] has an EC50 of 453 ± 66 nM.
With `CC1(N2[C@@H]3CCC[C@H]2C[C@@H](n2c(=O)c(C(=O)O)nc4ccccc42)C3)CCCCCCC1` [compound 335] the EC50 was 174 ± 10 nM.
Work on `O=C(NOCc1ccccc1)c1nc2ccccc2n(C2CCN(C3CCCCCCC3)CC2)c1=O` [compound 84] yielded an EC50 of 182 ± 22 nM.
Compound `NC(=O)C1CCCN(c2nc3ccccc3n(C3CCN(C4CCCCCCC4)CC3)c2=O)C1` (stereo not drawn) [compound 60] has an EC50 of 2140 ± 661 nM.
Compound `O=C(O)c1ccc(CNC(=O)c2nc3ccccc3n([C@H]3C[C@H]4CC[C@@H](C3)N4C3CCCCCCC3)c2=O)nc1` [compound 318, 6-((4-((endo)-8-cyclooctyl-8-azabicyclo[3.2.1]octan-3-yl)-3-oxo-3 ,4-dihydroquinoxaline-2-carboxamido)methyl)nicotinic acid] has an EC50 of 236 ± 13 nM.
Compound `CCOC(=O)CNc1nc2ccccc2n(C2CCN(C3CCCCCCC3)CC2)c1=O` [compound 57] has an EC50 of 486 ± 34 nM.
Compound `COC(=O)c1ccc2c(c1)CN(c1nc3ccccc3n(C3CCN(C4CCCCCCC4)CC3)c1=O)CC2` [compound 44] has an EC50 of 392 ± 6.6 nM.
Work on `COC(=O)C(CO)Nc1nc2ccccc2n(C2CCN(C3CCCCCCC3)CC2)c1=O` (stereo not drawn) [compound 46] yielded an EC50 of 399 ± 56 nM.
`CC(C)(C)OC(=O)NCCNc1nc2ccccc2n(C2CCN(C3CCCCCCC3)CC2)c1=O` [compound 7, tert-butyl 2-(4-(1-cyclooctylpiperidin-4-yl)-3-oxo-3,4-dihydroquinoxalin-2-ylamino)ethylcarbamate] was tested, and the EC50 was 979 ± 40 nM.
With `O=C(c1nc2ccccc2n(C2CCN(C3CCCCCCC3)CC2)c1=O)N1CC2CNCC2C1` (stereo not drawn) [compound 73, 1-(1-cyclooctylpiperidin-4-yl)-3-(octahydropyrrolo[3,4-c]pyrrole-2-carbonyl)quinoxalin-2(1H)-one] the EC50 was 377 ± 115 nM.
`O=c1c(N2Cc3ccccc3C2)nc2ccccc2n1C1CCN(C2CCCCCCC2)CC1` [compound 19, 1-(1-cyclooctylpiperidin-4-yl)-3-(isoindolin-2-yl)quinoxalin-2(1H)-one] showed an EC50 of 286 ± 30 nM.
`O=C1CCN(c2nc3ccccc3n(C3CCN(C4CCCCCCC4)CC3)c2=O)N1` [compound 119, 1-(1-cyclooctylpiperidin-4-yl)-3-(3-oxopyrazolidin-1-yl)quinoxalin-2(1H)-one] gave an EC50 of 3660 ± 171 nM.
`CCOC(=O)CN(C)c1nc2ccccc2n(C2CCN(C3CCCCCCC3)CC2)c1=O` [compound 61] showed an EC50 of 1230 ± 238 nM.
Compound `COC(=O)C1CCN(c2nc3ccccc3n(C3CCN(C4CCCCCCC4)CC3)c2=O)CC1` [compound 16] has an EC50 of 3750 ± 93 nM.
For `O=c1c(NC[C@@H](O)CO)nc2ccccc2n1C1CCN(C2CCCCCCC2)CC1` [compound 54], the EC50 was 464 ± 28 nM.
`CC(NC(=O)c1nc2ccccc2n([C@H]2C[C@H]3CC[C@@H](C2)N3C2CCCCCCC2)c1=O)C(=O)O` (stereo partly drawn) [compound 312, 2-(4-((endo)-8-cyclooctyl-8-azabicyclo[3.2.1]octan-3-yl)-3-oxo-3,4-dihydroquinoxaline-2-carboxamido)propanoic acid] was tested, and the EC50 was 138 ± 8.1 nM.
In the case of `CC(=O)N1CC2CN(c3nc4ccccc4n(C4CCN(C5CCCCCCC5)CC4)c3=O)CC2C1` (stereo not drawn) [compound 13, 3-(5-acetylhexahydropyrrolo[3,4-c]pyrrol-2(1H)-yl)-1-(1-cyclooctylpiperidin-4-yl)quinoxalin-2(1H)-one], the EC50 is reported as 1690 ± 166 nM.
For `CC(=O)Nc1nc2ccccc2n(C2CCN(C3CCCCCCC3)CC2)c1=O` [compound 17, N-(4-(1-cyclooctylpiperidin-4-yl)-3-oxo-3,4-dihydroquinoxalin-2-yl)acetamide], the EC50 was 7870 ± 2230 nM.
For `CNC(=O)c1nc2ccccc2n(C2CCN(C3CCCCCCC3)CC2)c1=O` [compound 78], the EC50 was 363 ± 20 nM.
`O=C(O)c1nc2ccccc2n([C@H]2C[C@H]3CCC[C@@H](C2)N3CCC2CCCCC2)c1=O` [compound 372] showed an EC50 of 214 ± 57 nM.
With `O=c1c(N2CC[C@@H](O)C2)nc2ccccc2n1C1CCN(C2CCCCCCC2)CC1` [compound 92] the EC50 was 510 ± 100 nM.
With `O=c1c(N2CC[C@H](O)C2)nc2ccccc2n1C1CCN(C2CCCCCCC2)CC1` [compound 68] the EC50 was 478 ± 6.4 nM.
`NC(=O)CNc1nc2ccccc2n(C2CCN(C34CC5CC(CC(C5)C3)C4)CC2)c1=O` [compound 64] was tested, and the EC50 was 457 ± 90 nM.
For `N=C(N)NCCNc1nc2ccccc2n(C2CCN(C3CCCCCCC3)CC2)c1=O` [compound 26], the EC50 was 109 ± 5.9 nM.
`CCOC(=O)c1nc2ccccc2n(C2CCN(C3CCCCCCC3)CC2)c1=O` [compound 70, ethyl 4-(1-cyclooctylpiperidin-4-yl)-3-oxo-3,4-dihydroquinoxaline-2-carboxylate] was tested, and the EC50 was 788 ± 44 nM.
With `O=C(O)c1nc2ccccc2n([C@H]2C[C@H]3CCC[C@@H](C2)N3C2C3CC4CC(C3)CC2C4)c1=O` (stereo partly drawn) [compound 363] the EC50 was 4090 ± 1160 nM.
`CC(C)(C)OC(=O)NC1CCN(c2nc3ccccc3n(C3CCN(C4CCCCCCC4)CC3)c2=O)CC1` [compound 21] was tested, and the EC50 was 1470 ± 50 nM.
Compound `CSCCC(NC(=O)c1nc2ccccc2n([C@H]2C[C@H]3CC[C@@H](C2)N3C2CCCCCCC2)c1=O)C(=O)O` (stereo partly drawn) [compound 309, 2-(4-((endo)-8-cyclooctyl-8-azabicyclo[3.2.1]octan-3-yl)-3-oxo-3,4-dihydroquinoxaline-2-carboxamido)-4-(methylthio)butanoic acid] has an EC50 of 659 ± 155 nM.
`O=c1c(NC[C@H](O)CO)nc2ccccc2n1C1CCN(C2CCCCCCC2)CC1` [compound 55] showed an EC50 of 421 ± 50 nM.
In the case of `CN(CC(=O)O)C(=O)c1nc2ccccc2n([C@H]2C[C@H]3CC[C@@H](C2)N3C2CCCCCCC2)c1=O` [compound 307, 2-(4-((endo)-8-cyclooctyl-8-azabicyclo[3.2.1]octan-3-yl)-N-methyl-3-oxo-3,4-dihydroquinoxaline-2-carboxamido)acetic acid], the EC50 is reported as 400 ± 72 nM.
Work on `NC(=O)[C@H](CO)Nc1nc2ccccc2n(C2CCN(C3CCCCCCC3)CC2)c1=O` [compound 33] yielded an EC50 of 211 ± 21 nM.
`O=C(NCC(O)CO)c1nc2ccccc2n(C2CCN(C3CCCCCCC3)CC2)c1=O` (stereo not drawn) [compound 79] gave an EC50 of 703 ± 39 nM.
With `O=c1c(NCC(O)CO)nc2ccccc2n1C1CCN(C2CCCCCCC2)CC1` (stereo not drawn) [compound 25, 1-(1-cyclooctylpiperidin-4-yl)-3-(2,3-dihydroxypropylamino)quinoxalin-2(1H)-one] the EC50 was 781 ± 26 nM.
For `CC(C)(C)OC(=O)N1CCN(c2nc3ccccc3n(C3CCN(C4CCCCCCC4)CC3)c2=O)CC1` [compound 8, tert-butyl 4-(4-(1-cyclooctylpiperidin-4-yl)-3-oxo-3,4-dihydroquinoxalin-2-yl)piperazine-1-carboxylate], the EC50 was 4560 ± 1120 nM.
With `CC(C)CCC(C)N1[C@@H]2CCC[C@H]1C[C@@H](n1c(=O)c(C(=O)O)nc3ccccc31)C2` (stereo partly drawn) [compound 303] the EC50 was 298 ± 23 nM.
For `CN(CC(O)CO)c1nc2ccccc2n(C2CCN(C3CCCCCCC3)CC2)c1=O` (stereo not drawn) [compound 65], the EC50 was 348 ± 22 nM.
With `CS(=O)(=O)N[C@@H]1CCN(c2nc3ccccc3n(C3CCN(C4CCCCCCC4)CC3)c2=O)C1` [compound 66] the EC50 was 108 ± 15.1 nM.
`CN(C)c1nc2ccccc2n(C2CCN(C3CCCCCCC3)CC2)c1=O` [compound 2, 1-(1-cyclooctylpiperidin-4-yl)-3-(dimethylamino)quinoxalin-2(1H)-one] was tested, and the EC50 was 580 ± 92 nM.
`NCC(O)CNc1nc2ccccc2n(C2CCN(C3CCCCCCC3)CC2)c1=O` (stereo not drawn) [compound 58] showed an EC50 of 151 ± 7.9 nM.
Work on `COC(=O)[C@@H]1CCCN1c1nc2ccccc2n(C2CCN(C3CCCCCCC3)CC2)c1=O` [compound 27] yielded an EC50 of 969 ± 89 nM.
For `O=C(O)c1cccc(CNc2nc3ccccc3n([C@H]3C[C@H]4CC[C@@H](C3)N4C3CCCCCCC3)c2=O)c1` [compound 305], the EC50 was 394 ± 53 nM.
Compound `C=CCNc1nc2ccccc2n(C2CCN(C3CCCCCCC3)CC2)c1=O` [compound 24, 3-(allylamino)-1-(1-cyclooctylpiperidin-4-yl)quinoxalin-2(1H)-one] has an EC50 of 611 ± 71 nM.
With `CONC(=O)c1nc2ccccc2n(C2CCN(C3CCCCCCC3)CC2)c1=O` [compound 83] the EC50 was 558 ± 77 nM.
`CS(=O)(=O)NC1CCN(c2nc3ccccc3n(C3CCN(C4CCCCCCC4)CC3)c2=O)CC1` [compound 30] gave an EC50 of 699 ± 19 nM.
`N#Cc1nc2ccccc2n(C2CCN(C3CCCCCCC3)CC2)c1=O` [compound 88] showed an EC50 of 201 ± 27 nM.
Compound `CC(=O)N[C@H]1CCN(c2nc3ccccc3n(C3CCN(C4CCCCCCC4)CC3)c2=O)C1` [compound 59] has an EC50 of 383 ± 63 nM.
Work on `O=C(O)CN1CCN(c2nc3ccccc3n([C@H]3C[C@H]4CC[C@@H](C3)N4C3CCCCCCC3)c2=O)CC1` [compound 337, 2-(4-(4-((endo)-8-cyclooctyl-8-azabicyclo[3.2.1]octan-3-yl)-3-oxo-3,4-dihydroquinoxalin-2-yl)piperazin-1-yl)acetic acid] yielded an EC50 of 438 ± 15 nM.
For `O=C(O)c1nc2ccccc2n([C@H]2C[C@H]3CC[C@@H](C2)N3C23CC4CC(CC2C4)C3)c1=O` [compound 320], the EC50 was 104 ± 7.8 nM.
`O=C(O)c1nc2ccccc2n([C@H]2C[C@H]3CCCC[C@@H](C2)N3C2/C=C\CCCCC2)c1=O` (stereo partly drawn) [compound 359] was tested, and the EC50 was 134 ± 2.7 nM.
`O=C(O)c1nc2ccc(F)cc2n([C@H]2C[C@H]3CC[C@@H](C2)N3C2CCCCCCC2)c1=O` [compound 133] showed an EC50 of 473 ± 27 nM.
For `CC(=O)N1CCC(Nc2nc3ccccc3n(C3CCN(C4CCCCCCC4)CC3)c2=O)CC1` [compound 49], the EC50 was 808 ± 110 nM.
`O=C(O)CN(CCNC(=O)c1nc2ccccc2n([C@H]2C[C@H]3CC[C@@H](C2)N3C23CC4CC(CC(C4)C2)C3)c1=O)CC(=O)O` [compound 325] showed an EC50 of 109 ± 14 nM.
